Results reported in patent US20140094424A1, “MICROBICIDAL COMPOSITIONS AND METHODS OF PRODUCTION USE THEREOF” (priority 2011, published 2014).

Experiments:
[1] = tested on: Penicillium notatum-KMO (R); assay: MBC (minimum bactericidal concentration) test in Wash NEXT reagent; assay type: cell-based; design: key to MBC test growth score: number = actual colony count; + full mat, − no growth
Method: (§1) The stock organisms were thawed and subbed prior to beginning the MBC test. Molds were subbed to SDA plates one week before, and the bacteria were subbed to TAT agar plates 24 hours prior to the start of the test. All plates were incubated at 32 degrees C.
(§2) For the molds, each organism was inoculated into 40 ml sterile saline in a centrifuge tube to create a density of MacFarland #5. Two serial dilutions of 1:100 were then made, resulting in 10^−2 and 10^−4 concentrations. Each dilution was vortexed before it was sampled, and sterile Eppendorf pipette tips were used to make each transfer. The 10^−4 dilution was spiral plated to yield the initial inoculum concentration.
(§3) MBC trays were set up with the prepared test reagent. Using a Matrix pipettor, 100 μl aliquots of reagent were distributed into the wells, diluting the amount of preservative from 100% to 10% increments, using unpreserved reagent as the diluent. In one row, 100% non-preserved reagent acted as a positive control and served as a benchmark for a full mat of growth. In well #12H, 100 μl unpreserved reagent was pipetted, and this well was not inoculated with organisms, as it served as the negative control. Once all of the trays were prepared, the prepared bacteria/mold suspensions were poured into the MBC inoculating trays. These were placed onto the reagent trays, and 0.01 ml inoculum was introduced into the 100 μl of reagent in each well.
(§4) This was done by dipping a sterile cotton swab into each well, and absorbing all of the liquid in the well. The swab was rolled onto a TAT agar plate ensuring that the entire swab touches the agar. Plates ware incubated at 32 degrees C. for 48 hours to 7 days, depending on the organism. Observations for growth were performed by a scoring matrix using + for a full mat, +/− for some growth, a numerical value for an actual colony count, and—for no growth.
(§5) Below are tables that contain the data obtained in Example 1. The MBC test is scored by (+) indicating a full grown mat of organisms, equivalent to the organisms in the unpreserved reagent. (+/−) indicates there is some kill evident disturbing that mat or bringing the quantities down to an almost countable level. An actual number is the actual number of colonies growing at that concentration of preservative. (−) indicates no growth found. The MBC trays were stored at room temperature for the entire test.
(§6) The materials and methods and analysis of the MBC test were the same as in Example 1.

[2] = tested on: Aspergillus glaucus- DMO (Q); assay: as above; assay type: cell-based
Method: as §1, §2, §3, §4, §5, §6

gentamicin
MBC test growth score ([1]; 10% preservative, 8 hour): + | MBC test growth score ([1]; 10% preservative, 24 hour): + | MBC test growth score ([1]; 10% preservative, 48 hour): +/− | MBC test growth score ([1]; 10% preservative, 72 hour): +/− | MBC test growth score ([1]; 10% preservative, 7 day): +/− | MBC test growth score ([1]; 10% preservative, 14 day): +/− | MBC test growth score ([1]; 20% preservative, 8 hour): + | MBC test growth score ([1]; 20% preservative, 24 hour): + | MBC test growth score ([1]; 20% preservative, 48 hour): +/− | MBC test growth score ([1]; 20% preservative, 72 hour): +/− | MBC test growth score ([1]; 20% preservative, 7 day): +/− | MBC test growth score ([1]; 20% preservative, 14 day): +/− | MBC test growth score ([1]; 30% preservative, 8 hour): + | MBC test growth score ([1]; 30% preservative, 24 hour): + | MBC test growth score ([1]; 30% preservative, 48 hour): +/− | MBC test growth score ([1]; 30% preservative, 72 hour): +/− | MBC test growth score ([1]; 30% preservative, 7 day): +/− | MBC test growth score ([1]; 30% preservative, 14 day): +/− | MBC test growth score ([1]; 40% preservative, 8 hour): + | MBC test growth score ([1]; 40% preservative, 24 hour): + | MBC test growth score ([1]; 40% preservative, 48 hour): +/− | MBC test growth score ([1]; 40% preservative, 72 hour): +/− | MBC test growth score ([1]; 40% preservative, 7 day): +/− | MBC test growth score ([1]; 40% preservative, 14 day): 28 | MBC test growth score ([1]; 50% preservative, 8 hour): + | MBC test growth score ([1]; 50% preservative, 24 hour): + | MBC test growth score ([1]; 50% preservative, 48 hour): +/− | MBC test growth score ([1]; 50% preservative, 72 hour): +/− | MBC test growth score ([1]; 50% preservative, 7 day): +/− | MBC test growth score ([1]; 50% preservative, 14 day): 25 | MBC test growth score ([1]; 60% preservative, 8 hour): + | MBC test growth score ([1]; 60% preservative, 24 hour): + | MBC test growth score ([1]; 60% preservative, 48 hour): +/− | MBC test growth score ([1]; 60% preservative, 72 hour): +/− | MBC test growth score ([1]; 60% preservative, 7 day): +/− | MBC test growth score ([1]; 60% preservative, 14 day): 23 | MBC test growth score ([1]; 70% preservative, 8 hour): + | MBC test growth score ([1]; 70% preservative, 24 hour): + | MBC test growth score ([1]; 70% preservative, 48 hour): +/− | MBC test growth score ([1]; 70% preservative, 72 hour): +/− | MBC test growth score ([1]; 70% preservative, 7 day): 23 | MBC test growth score ([1]; 70% preservative, 14 day): 18 | MBC test growth score ([1]; 80% preservative, 8 hour): + | MBC test growth score ([1]; 80% preservative, 24 hour): + | MBC test growth score ([1]; 80% preservative, 48 hour): +/− | MBC test growth score ([1]; 80% preservative, 72 hour): +/− | MBC test growth score ([1]; 80% preservative, 7 day): 16 | MBC test growth score ([1]; 80% preservative, 14 day): 12 | MBC test growth score ([1]; 90% preservative, 8 hour): + | MBC test growth score ([1]; 90% preservative, 24 hour): + | MBC test growth score ([1]; 90% preservative, 48 hour): +/− | MBC test growth score ([1]; 90% preservative, 72 hour): +/− | MBC test growth score ([1]; 90% preservative, 7 day): 11 | MBC test growth score ([1]; 90% preservative, 14 day): 9 | MBC test growth score ([1]; 100% preservative, 8 hour): + | MBC test growth score ([1]; 100% preservative, 24 hour): + | MBC test growth score ([1]; 100% preservative, 48 hour): +/− | MBC test growth score ([1]; 100% preservative, 72 hour): +/− | MBC test growth score ([1]; 100% preservative, 7 day): 7 | MBC test growth score ([1]; 100% preservative, 14 day): 6 | MBC test growth score ([2]; 10% preservative, 8 hour): + | MBC test growth score ([2]; 10% preservative, 24 hour): + | MBC test growth score ([2]; 10% preservative, 48 hour): +/− | MBC test growth score ([2]; 10% preservative, 72 hour): +/− | MBC test growth score ([2]; 10% preservative, 7 day): +/− | MBC test growth score ([2]; 10% preservative, 14 day): +/− | MBC test growth score ([2]; 20% preservative, 8 hour): + | MBC test growth score ([2]; 20% preservative, 24 hour): + | MBC test growth score ([2]; 20% preservative, 48 hour): +/− | MBC test growth score ([2]; 20% preservative, 72 hour): +/− | MBC test growth score ([2]; 20% preservative, 7 day): +/− | MBC test growth score ([2]; 20% preservative, 14 day): +/− | MBC test growth score ([2]; 30% preservative, 8 hour): + | MBC test growth score ([2]; 30% preservative, 24 hour): + | MBC test growth score ([2]; 30% preservative, 48 hour): +/− | MBC test growth score ([2]; 30% preservative, 72 hour): +/− | MBC test growth score ([2]; 30% preservative, 7 day): +/− | MBC test growth score ([2]; 30% preservative, 14 day): 36 | MBC test growth score ([2]; 40% preservative, 8 hour): + | MBC test growth score ([2]; 40% preservative, 24 hour): + | MBC test growth score ([2]; 40% preservative, 48 hour): +/− | MBC test growth score ([2]; 40% preservative, 72 hour): +/− | MBC test growth score ([2]; 40% preservative, 7 day): +/− | MBC test growth score ([2]; 40% preservative, 14 day): 35 | MBC test growth score ([2]; 50% preservative, 8 hour): + | MBC test growth score ([2]; 50% preservative, 24 hour): + | MBC test growth score ([2]; 50% preservative, 48 hour): +/− | MBC test growth score ([2]; 50% preservative, 72 hour): +/− | MBC test growth score ([2]; 50% preservative, 7 day): 29 | MBC test growth score ([2]; 50% preservative, 14 day): 28 | MBC test growth score ([2]; 60% preservative, 8 hour): + | MBC test growth score ([2]; 60% preservative, 24 hour): + | MBC test growth score ([2]; 60% preservative, 48 hour): +/− | MBC test growth score ([2]; 60% preservative, 72 hour): +/− | MBC test growth score ([2]; 60% preservative, 7 day): 25 | MBC test growth score ([2]; 60% preservative, 14 day): 26 | MBC test growth score ([2]; 70% preservative, 8 hour): + | MBC test growth score ([2]; 70% preservative, 24 hour): + | MBC test growth score ([2]; 70% preservative, 48 hour): +/− | MBC test growth score ([2]; 70% preservative, 72 hour): +/− | MBC test growth score ([2]; 70% preservative, 7 day): 21 | MBC test growth score ([2]; 70% preservative, 14 day): 20 | MBC test growth score ([2]; 80% preservative, 8 hour): + | MBC test growth score ([2]; 80% preservative, 24 hour): + | MBC test growth score ([2]; 80% preservative, 48 hour): +/− | MBC test growth score ([2]; 80% preservative, 72 hour): +/− | MBC test growth score ([2]; 80% preservative, 7 day): 16 | MBC test growth score ([2]; 80% preservative, 14 day): 14 | MBC test growth score ([2]; 90% preservative, 8 hour): + | MBC test growth score ([2]; 90% preservative, 24 hour): + | MBC test growth score ([2]; 90% preservative, 48 hour): +/− | MBC test growth score ([2]; 90% preservative, 72 hour): 22 | MBC test growth score ([2]; 90% preservative, 7 day): 10 | MBC test growth score ([2]; 90% preservative, 14 day): 9 | MBC test growth score ([2]; 100% preservative, 8 hour): + | MBC test growth score ([2]; 100% preservative, 24 hour): + | MBC test growth score ([2]; 100% preservative, 48 hour): +/− | MBC test growth score ([2]; 100% preservative, 72 hour): 18 | MBC test growth score ([2]; 100% preservative, 7 day): 5 | MBC test growth score ([2]; 100% preservative, 14 day): 4
